pIC50: −log10 of the molar value.
Columns and labels:
[1] = molecular target: T1, Bromodomain-containing protein 2 (Homo sapiens, UniProt P25440); assay: Inhibition of HTRF binding to N-terminal His-tagged BRD2(2) (unknown origin) at 50 uM using biotinylated tetra-acetylated histone H4 peptide and Cryptate-labeled streptavidin incubated for 2 hrs by TR-FRET assay
Target sequence in this assay (P25440 whole entry, looked up): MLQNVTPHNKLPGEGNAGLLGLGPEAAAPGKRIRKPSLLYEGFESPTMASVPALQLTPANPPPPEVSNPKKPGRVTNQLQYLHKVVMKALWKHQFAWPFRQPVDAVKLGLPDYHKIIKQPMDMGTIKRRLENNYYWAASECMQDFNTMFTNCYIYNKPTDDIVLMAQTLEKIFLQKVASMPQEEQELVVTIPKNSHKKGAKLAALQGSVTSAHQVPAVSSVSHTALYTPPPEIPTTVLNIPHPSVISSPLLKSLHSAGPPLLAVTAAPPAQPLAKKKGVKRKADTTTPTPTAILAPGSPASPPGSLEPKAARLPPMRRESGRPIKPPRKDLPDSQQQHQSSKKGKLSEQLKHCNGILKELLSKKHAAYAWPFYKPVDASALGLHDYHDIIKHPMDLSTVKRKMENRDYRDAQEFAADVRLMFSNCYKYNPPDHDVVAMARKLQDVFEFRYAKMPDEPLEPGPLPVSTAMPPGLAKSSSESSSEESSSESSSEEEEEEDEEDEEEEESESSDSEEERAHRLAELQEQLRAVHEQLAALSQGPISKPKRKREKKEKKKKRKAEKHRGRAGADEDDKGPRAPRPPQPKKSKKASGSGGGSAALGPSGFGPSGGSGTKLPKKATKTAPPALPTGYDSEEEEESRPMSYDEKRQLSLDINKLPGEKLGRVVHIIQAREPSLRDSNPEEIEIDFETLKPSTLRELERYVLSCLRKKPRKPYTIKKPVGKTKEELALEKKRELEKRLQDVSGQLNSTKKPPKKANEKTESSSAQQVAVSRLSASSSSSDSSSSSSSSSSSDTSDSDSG

[2] = molecular target: T2, Bromodomain-containing protein 4 (Homo sapiens, UniProt O60885); assay: Inhibition of HTRF binding to N-terminal His-tagged BRD4(1) (unknown origin) at 50 uM using biotinylated tetra-acetylated histone H4 peptide and Cryptate-labeled streptavidin incubated for 2 hrs by TR-FRET assay
[3] = molecular target: T2, Bromodomain-containing protein 4; assay: Inhibition of HTRF binding to N-terminal His-tagged BRD4(1) (unknown origin) using biotinylated tetra-acetylated histone H4 peptide and Cryptate-labeled streptavidin incubated for 2 hrs by TR-FRET assay
[4] = molecular target: T1, Bromodomain-containing protein 2; assay: Inhibition of HTRF binding to N-terminal His-tagged BRD2(2) (unknown origin) using biotinylated tetra-acetylated histone H4 peptide and Cryptate-labeled streptavidin incubated for 2 hrs by TR-FRET assay
Target sequence in this assay (P25440 whole entry): as the sequence (P25440 whole entry, looked up) above

SMILES | inhibition [1] | inhibition [2] | pIC50 [3] | pIC50 [4]
COC(=O)c1ccc(/C=C(/C(=O)N2CC(=O)Nc3ccccc32)c2ccccc2)cc1 |  |  | 4.60 | 4.60
O=C1CN(C(=O)c2cncc(-c3ccc(Cl)cc3)c2)c2ccccc2N1 |  |  | 4.31 | 
COc1ccc(/C=C(/C(=O)N2CC(=O)Nc3ccccc32)c2ccc(NC(C)=O)cc2)cc1 |  |  | 4.89 | 4.62
O=C1CN(C(=O)c2cncc(-c3ccc(F)cc3)c2)c2ccccc2N1 |  |  | 4.33 | 
COc1ccc(/C(=C\c2ccncc2)C(=O)N2CC(=O)Nc3ccccc32)cc1 |  |  | 4.60 | 5.30
COc1ccc(/C=C(/C(=O)Nc2c(C)noc2C)c2ccc(OC)cc2)cc1 |  |  | 4.36 | 4.92
COc1cc(NCc2ccccc2)cc(C(=O)N2CC(=O)Nc3ccccc32)c1 |  |  | < 4.30 | 
COc1ccc(/C=C(/C(=O)N2CC(=O)Nc3ccccc32)c2ccc(OC)cc2OC)cc1 |  |  | < 4.30 | < 4.30
O=C1CN(C(=O)c2cncc(-c3cccc(O)c3)c2)c2ccccc2N1 |  |  | 4.54 | 
COc1ccc(/C=C(/C(=O)N2CC(=O)Nc3ccccc32)c2ccc(OC)c(OC)c2)cc1 |  |  | 4.74 | 4.59
COc1ccc(/C=C(/C(=O)N2CC(=O)Nc3cc(OC)ccc32)c2ccccc2)cc1 |  |  | 4.47 | < 4.30
COc1ccc(/C=C(/C(=O)N2CC(=O)Nc3ccccc32)c2ccc(C)c(C)c2)cc1 |  |  | 4.85 | < 4.30
CC(=O)Nc1cccc(/C=C(/C(=O)N2CC(=O)Nc3ccccc32)c2ccccc2)c1 |  |  | 4.40 | 5.00
CCn1ccc(C(=O)N2CC(=O)Nc3ccccc32)n1 | > 50% | > 25% |  | 
COc1ccc(/C=C(/C(=O)N2CC(=O)Nc3cc(OC)ccc32)c2ccc(OC)cc2)cc1 |  |  | 4.89 | 4.89
Cc1ccc(-c2cc(C(=O)N3CC(=O)Nc4ccccc43)[nH]n2)cc1 | 0% | 0% |  | 
NC(=O)c1ccc(/C=C(/C(=O)N2CC(=O)Nc3ccccc32)c2ccccc2)cc1 |  |  | 4.34 | 4.31
COc1cccc(-c2cncc(C(=O)N3CC(=O)Nc4ccccc43)c2)c1 |  |  | 4.60 | 
COc1ccc(/C=C(/C(=O)N2CC(=O)Nc3ccccc32)c2cccs2)cc1 |  |  | 4.89 | 4.64
COc1ccc(/C=C(/C(=O)N2CC(=O)Nc3ccccc32)c2ccccc2)cc1 | > 50% | > 25% | 4.59 | 4.66
N#Cc1cccc(-c2cncc(C(=O)N3CC(=O)Nc4ccccc43)c2)c1 |  |  | 4.36 | 4.92
COc1ccc(/C=C(/C(=O)N2CC(=O)Nc3ccccc32)c2ccc(OC)cc2)cc1 |  |  | 4.80 | 4.89

Other lines, results leading:

inhibition [1] | inhibition [2] | pIC50 [3] | pIC50 [4] | SMILES
0% | 0% |  |  | O=C1CN(C(=O)c2cc(-c3cccc(Cl)c3)[nH]n2)c2ccccc2N1
0% | 0% |  |  | CS(=O)(=O)N(CC(=O)N1CC(=O)Nc2ccccc21)c1ccccc1F
0% | 0% |  |  | CCc1ccc(CC(=O)N2CC(=O)Nc3ccccc32)cc1
25% | 0% |  |  | O=C1CN(C(=O)Cc2ccc(Cl)cc2)c2ccccc2N1
 |  | 5.05 |  | O=C1CN(C(=O)c2cc(O)cc(-c3ccccc3)c2)c2ccccc2N1
 |  | 4.89 |  | COc1cc(C(=O)N2CC(=O)Nc3ccccc32)cc(-c2ccccc2)c1
> 50% | > 25% |  |  | O=C1CN(C(=O)c2cccc(C(F)(F)F)c2)c2ccccc2N1
0% | 0% |  |  | CSc1ccc(Cl)c(C(=O)N2CC(=O)Nc3ccccc32)c1
25% | 0% |  |  | COc1cccc(OCC(=O)N2CC(=O)Nc3ccccc32)c1
> 50% | > 25% |  |  | O=C1CN(C(=O)C(c2ccccc2)c2ccccc2)c2ccccc2N1
25% | 0% |  |  | CC(C)Sc1ccccc1C(=O)N1CC(=O)Nc2ccccc21
25% | 0% |  |  | Cc1cccc(OCCC(=O)N2CC(=O)Nc3ccccc32)c1
0% | 0% |  |  | CSc1ccc(CC(=O)N2CC(=O)Nc3ccccc32)cc1
> 50% | > 25% |  |  | CSc1ccccc1C(=O)N1CC(=O)Nc2ccccc21
 |  | 4.59 | 4.70 | O=C1CN(C(=O)c2cncc(-c3ccccc3)c2)c2ccccc2N1
25% | 0% |  |  | O=C1CN(C(=O)CCc2ccccc2Cl)c2ccccc2N1
25% | 0% |  |  | O=C1CN(C(=O)c2cccc(F)c2)c2ccccc2N1
0% | 0% |  |  | Cc1ccc(CC(=O)N2CC(=O)Nc3ccccc32)cc1
0% | 0% |  |  | O=C1CN(C(=O)Cc2cccs2)c2ccccc2N1
25% | 0% |  |  | COc1ccc(CC(=O)N2CC(=O)Nc3ccccc32)cc1OC
25% | 0% |  |  | O=C1CN(C(=O)c2sc3ccccc3c2Cl)c2ccccc2N1
> 50% | > 25% |  |  | O=C1CN(C(=O)Cc2cccc3ccccc23)c2ccccc2N1
